Measurements from US20060216820A1, “Use of retinoic esters of hyaluronic acid for the differentiation of totipotent stem cells” (SINTOFARM S.P.A., priority 2003, published 2006).

Experiments:
P19 cells = conditions: cited from earlier work
[1] = tested on: human totipotent stem cells; conditions: totipotent stem cells (Xu et al. 2002); cited from earlier work
GTR1 stem cells [2] = test: RT-PCR detection of cardiospecific transcripts (MHC, MLC) in GTR1 cells; assay type: cell-based, murine; conditions: 1 μM chelerithrine with retinoic esters of hyaluronic acid 0.75 mg/ml, 10 days; puromycin-selected cardiomyocytes
Text: Analysis of gene expression. Total RNA has been extracted from stem cells as described by Ventura et al. (Ventura C et al. J Biol. Chem. 1997; 272: 6685-6692). The levels of specific mRNAs have been analyzed by “RNase protection”, using [^32P]CTP radiolabeled cRNA probes (antisense mRNA) specific for each transcript of interest, according to a previously described protocol (Ventura C et al. J Biol. Chem. 1997; 272:6685-6692). Briefly, fragments corresponding to the main exons of GATA-4 (292 bp), Nkx-2.5 (414 bp) and prodynorphin (424 bp) genes have been inserted in the vector pCRII-TOPO (Invitrdgen). Transcription of the vector linearized With ApaI, BamHI, or XbaI respectively generated sense strand mRNA of prodynorphin, GATA-4, or Nkx-2.5. Transcription in presence of [^32P]CTP of the plasmid linearized with BamHI produced the antisense mRNA strand of prodynorphin and Nkx-2.5, while transcription of the vector linearized with XbaI generated the antisense mRNA strand of GATA-4. In some experiments the analysis of mRNA expression has been performed by means of RT-PCR, as described in (Ventura C, Maioli M. Circ Res. 2000:87:189-194).
GTR1 stem cells were used in these studies. […]

GTR1 stem cells [3] = test: In vitro nuclear run-off transcription in nuclei from treated GTR1 cells; assay type: cell-based, murine; conditions: 1 μM chelerithrine with retinoic esters of hyaluronic acid 0.75 mg/ml, 10 days; puromycin-selected cardiomyocytes
Text: Gene transcription studies. Gene transcription rate has been analyzed in nuclei isolated by an approach of “in vitro nuclear run-off transcription”, previously described (Ventura C., J Biol Chem. 1997; 272:6685-6692.; Ventura C. et al. J Biol. Chem. 1998; 273:13383-13386.). Briefly, nuclei have been resuspended in buffer containing 50 mmol/L Tris/HCl, pH 8.0, 5 mmol/L MgCl2, 0.1 mmol/L EDTA, 40% glycerol, 0.1 mmol/L dithiothreitol, 0.5 mmol/L phenylmethylsulfonylfluoride, 1 μmol/L leupeptin, and 10 mmol/L β-mercaptoethanol. 100 μl of 2× reaction buffer (10 mmol/L Tris/HCl, pH 7.5, 5 mmol/L MgCl2, 0.3 mol/L KCl, 5 mmol/L dithiothreitol, 1 mmol/L of ATP, GTP, and CTP), and 5 μl of [α-^32P]UTP (3000 Ci/mmol) have been added to the nuclear suspension (90 μl). Samples were then incubated at room temperature for 15 min. The reaction has been stopped by digesting the DNA in presence of RNase-free DNase. The nuclear RNA has been isolated as described in Ventura C et al. J Biol Chem. 1997; 272:6685-6692. Approximately 5×10^6 cpm of ^32P labeled nuclear RNA were hybridized for 12 hours at 55° C. in presence of cold (not radioactive) probes of antisense mRNA of GATA-4, Nkx-2.5 or prodynorphin, generated, as described above, in absence of radiolabeled ribonucleotides. […]

## C[S+](C)[O-] [DMSO, dimethylsulfoxide]
P19 cells; P19 cells in presence of DMSO
  cells that differentiate in embryonic cardiomyocytes: 15-20%
P19 cells; pluripotent murine cells in vitro
  overall efficiency of cardiogenic effect: rather low
[1]
  percentage of totipotent stem cells undergoing cardiomyocyte differentiation: unable to produce a significant increase

## COc1ccc2c(c[n+](C)c3c4cc5c(cc4ccc23)OCO5)c1OC [chelerithrine]
GTR1 stem cells [2]
  effect of chelerithrine on the ester-induced expression of cardiospecific genes (MHC, MLC): antagonized
GTR1 stem cells [3]
  effect of chelerithrine on the ester-induced expression/transcription of cardiogenic genes (GATA-4, Nkx-2.5, prodynorphin): antagonized
